From patent EP1067965B1, “PHARMACEUTICAL COMPOSITION FOR TREATING CEREBRAL APOPLEXY AND CRANIOCEREBRAL TRAUMA” (Bayer HealthCare AG, priority 1997, dated 1999) come the findings set out here.

SMILES strings stand for the structures.

For assay [1], the system named is Rattenmodell der permanenten fokalen cerebralen Ischämie (MCA-O). Description: Neuroprotection in the rat model of permanent focal cerebral ischaemia (MCA-O). The format is in vivo, Ratte. The note with it: 7 days survival, Placebo 146,69 ± 6,77. The text has this:
Unter allgemeiner Narkose (Isofluran) wird in der Mitte zwischen Auge und Ohr ein Hautschnitt gelegt und unter Durchtrennung der darunterliegenden Muskelpartien ein Zugang zum Schädel im Bereich des Foramen ovale geschaffen. Etwa 1 mm rostrodorsal dieser Öffnung wird der Schädelkalotte durchgebohrt, die darunterliegenden Hirnhäute eröffnet, und durch Elektrokoagulation die Arteria cerebri media und deren Nebenäste permanent verschlossen. Daraufhin wird die Kaumuskulatur in ihre ursprüngliche Lage gebracht. Die Muskel- und Hautwunde wird chirurgisch verschlossen und versorgt. Nach dem Aufwachen aus der Narkose werden die Tiere in ihren Heimkäfig zurückgesetzt. Im Verlauf der folgenden Stunden entwickelt sich im Versorgungsgebiet der Arteria cerebri media ein Infarkt, dessen Ausdehnung histologisch quantifiziert wird.
Nach 7 Tagen Überlebenszeit werden die Tiere getötet, das Gehirn entnommen und in auf -30°C gekühltem 2-Methylbutan eingefroren. Mit Hilfe eines Kryostatmikrotoms werden 20 µm dicke Schnitte in 500 µm Abstand im Infarktbereich hergestellt. Nach der Cresylechtviolett-Färbung der fixierten Gehirnschnitte ist das Infarktgebiet vom nicht betroffenen Gewebe deutlich zu unterscheiden. […]

For assay [2], the system named is isolierte Aortaringe des Kaninchens. As to the kind of experiment: Inhibition of KCl-induced contraction of isolated rabbit aortic rings. Conditions: KCl 1 x 10^-2 mol/l; mean ± standard deviation; Nimodipin value under a comparable set-up; read-out: EC50-Wert, Inhibition der KCl-induzierten Kontraktion der Kaninchen-Aortenringe. The format is cell-based. The text has this: Im Allgemeinen heben Kalziumkanalantagonisten die KCl-induzierte Kontraktion isolierter Aortaringe des Kaninchens auf (vgl. Arzneim.-Forsch./Drug Res. 1992, 42, 795-797; J. Pharmacol. Exp.Ther. 1953, 108,129-143.).
Kaninchen beiderlei Geschlechts werden schmerzlos betäubt und entblutet. Der thorakale Teil der Aorta descendens wird ohne Verletzung der Endothelschicht freipräpariert und auf ca. 2 mm breite spiraienförmige Streifensegmente geschnitten und einzeln unter einer Anfangsbelastung von ca. 2 g in 10ml Carbogen-begaste Krebs-Bicarbonat-Pufferlösung (37°C) verbracht.
Kontraktionen werden isometrisch erfaßt und ausgewertet.
Die funktionelle Integrität des Endotheliums wird durch Noradrenalin (1 x 10^-8 mol/l) induzierte Kontraktionen und durch Acetylcholin (1 x 10^-8 - 1 x 10^-5 mol/l) hervorgerufene Relaxation getestet. Nach einer Auswasch- und Ruhephase sowie Erreichen eines stabilen Basalwertes (ca. nach 2 Stunden) wird mit Zugabe von 0,25 ml KCl, bei einer Endkonzenration von 1 x 10^-2 mol/l eine submaximale (60-80%) Kontraktion der Aortastreifen ausgelöst. Die Testsubstanz wird während der Plateauphase der KCl induzierten Kontraktion in die Bäder appliziert (in steigender Dosierungen: 1 x 10^-12 - 1 x 10^-5 mol/l Endkonzentration) und die Wirkung auf den kontrahierten Gefäßstreifen gemessen. […]

Assay [3] has as its target T1, 5-HT1A Rezeptor gekoppelte Adenylatcyclase-Aktivität (Rattus norvegicus, UniProt P19327).
T1 construct: an hippocampalen Zellmembranen der Ratte; from tissue; host or cells: rat hippocampus membranes
T1 sequence (P19327 1-422): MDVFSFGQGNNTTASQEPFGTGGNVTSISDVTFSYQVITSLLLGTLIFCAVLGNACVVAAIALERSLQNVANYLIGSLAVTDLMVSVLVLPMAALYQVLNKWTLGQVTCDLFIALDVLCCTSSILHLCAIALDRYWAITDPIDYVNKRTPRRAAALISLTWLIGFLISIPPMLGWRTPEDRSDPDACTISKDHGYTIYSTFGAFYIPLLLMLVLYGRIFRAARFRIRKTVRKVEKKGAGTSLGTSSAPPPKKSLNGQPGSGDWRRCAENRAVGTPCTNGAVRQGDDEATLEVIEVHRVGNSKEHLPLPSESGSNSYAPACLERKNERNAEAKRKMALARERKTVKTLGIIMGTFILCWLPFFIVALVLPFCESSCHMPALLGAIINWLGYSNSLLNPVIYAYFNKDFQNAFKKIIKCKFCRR
As to the kind of experiment: Inhibition of forskolin-stimulated adenylate cyclase activity on hippocampal cell membranes. Type of assay: biochemical. The note with it: Hippocampusmembranen der Ratte; 0,01 mM Forskolin; read-out: IC50-Wert, Inhibition der Forskolin-stimulierten Adenylatcyclase Aktivität. As to the method: 5-HT1A Rezeptor gekoppelte Adenylatcyclase-Aktivität wurde an hippocampalen Zellmembranen der Ratte mit der Methodik von De Vivo und Maayani (J. Pharmacol. Exp. Ther. 1986, 238, 248-253.) gemessen.
Der Hippocampus wurde in 25 Volumen 0,3 M Sucroselösung (ergänzt mit 1mM EGTA, 5 mM EDTA, 5 mM Dithiothreitol und 20 mM Tris-HCl; pH 7,4 bei 25°C) in einem motorgetriebenen Potter-Elvehjem-Homogenisator zerkleinert. Das Homogenat wurde 10 min lang bei 1.000 g abzentrifugiert, danach der Überstand 10 min bei 39.000 g nochmals zentrifugiert. Das Pellet wurde im Homogenisationspuffer aufgenommen. Aliquots mit einem Proteingehalt von 1 mg/ml (gemessen nach Bradford Anal. Biochem. 1976, 72, 248-254.) wurden bei -140°C bis zur weiteren Verarbeitung aufbewahrt. Vor dem Assay wurde das aufgetaute Homogenat mit dem Potter-Elvehjem-Homogenisator nochmals homogenisiert. 50 µl Homogenat (mit ca. 50 µg Proteingehalt) wurden der vorgewärmten (5 min bei 30°C) Inkubationsmischung (100 mM NaCl, 2mM Magnesium Acetate 0,2 mM ATP, 1 mM cAMP, 0,01 mM GTP, 0,01 mM Forskolin, 80 mM Tris-HCl, 5 mM Creatine Phosphate, 0,8 U/µl Creatine Phosphokinase, 0,01 mM IBMX, 1 - 2 µCi α-[^32P]ATP) zupipettiert und so die Inkubation (10 min bei 30°C) gestartet.
Zur Messung der Adenylatcyclase-Aktivität wurde die Menge des gebildeten [^32P]cAMP nach Salomon (Adv. Cyclic Nucleotide Res. 1979, 10, 35-55.) bestimmt.

As a reminder, the EC50 is the concentration needed to bring the measured effect to its halfway point. As for `COCCOC(=O)C1=C(C)NC(C)=C(C(=O)OC(C)C)C1c1cccc([N+](=O)[O-])c1` (racemic) [Nimodipin, (RS)-1,4-Dihydro-2,6-dimethyl-4-(3-nitrophenyl)-3,5-pyridindicarbonsäure-isopropylester-2-methoxyethylester], the “Infarktvolumen im cerebralen Cortex (Mittelwert ± S.E.M; mm^3)” value in assay [1] (0,003 mg/kg/Std i.v. infusion over 4 h directly after occlusion) is recorded as 120,87 ± 8,79 mm^3. For the same molecule, the concentration giving a half-maximal response (EC50) in assay [2] fell in the range of 2.9 to 4.3 nM.

The IC50 is the midpoint of a concentration-inhibition curve. For `O=C1c2ccccc2S(=O)(=O)N1CCCCNCC1CCc2ccccc2O1` (single isomer, unassigned) [5-HT1A-Agonist*], the IC50 in assay [3] was found to be 1.6 nM. The “Infarktvolumen im cerebralen Cortex (Mittelwert ± S.E.M; mm^3)” value in assay [1] (i.v. infusion over 4 h directly after occlusion) is listed as 104,79 ± 7,63 mm^3.

Consider `COC(=O)C1=C(C)NC(C)=C(C(=O)OC)C1c1ccccc1[N+](=O)[O-]` [Nifedipin], for which the EC50 in assay [2] amounted to 3.58 nM.
